ChEMBL document CHEMBL4152314, “Symmetrical and unsymmetrical substituted 2,5-diarylidene cyclohexanones as anti-parasitic compounds” (Eur J Med Chem, 2018)

Columns and labels:
[1] = test system: Leishmania amazonensis; test: Antiparasitic activity against promastigote form of Leishmania amazonensis MHOM/BR/Josefa assessed as parasite growth inhibition after 72 hrs by Neubauer hemocytometer; type: functional, organism-based
[2] = test system: Trypanosoma cruzi; test: Antiparasitic activity against trypomastigote form of Trypanosoma cruzi assessed as parasite lysis after 24 hrs by Pizzi-Brener method; type: functional, organism-based
[3] = test system: Trypanosoma cruzi; test: Antiparasitic activity against epimastigote form of Trypanosoma cruzi Y assessed as parasite growth inhibition after 96 hrs by Neubauer hemocytometer; type: functional, organism-based
[4] = Selectivity index, ratio of CC50 for African green monkey Vero cells to EC50 for trypomastigote form of Trypanosoma cruzi; type: toxicity; conditions: read-out: Ratio CC50/EC50
[5] = Cytotoxicity against African green monkey Vero cells assessed as growth inhibition; type: cell-based; conditions: chlorocebus sabaeus
[6] = Selectivity index, ratio of CC50 for African green monkey Vero cells to IC50 for promastigote form of Leishmania amazonensis MHOM/BR/Josefa; type: toxicity; conditions: read-out: Ratio CC50/IC50
[7] = Selectivity index, ratio of CC50 for African green monkey Vero cells to IC50 for epimastigote form of Trypanosoma cruzi Y; type: toxicity; conditions: read-out: Ratio CC50/IC50

Compound	IC50 [1]	EC50 [2]	IC50 [3]	selectivity ratio [4]	CC50 [5]	selectivity ratio [6]	selectivity ratio [7]
O=C1/C(=C/c2ccc3c(c2)OCO3)CCC/C1=C\c1ccc2c(c1)OCO2	22 µM	78 µM	> 100 µM	3.3	257 µM	11.7	
COc1ccc(/C=C2\CCC/C(=C\c3ccc([N+](=O)[O-])cc3)C2=O)cc1	> 100 µM	> 100 µM	> 100 µM		435 µM		
COc1ccc(/C=C2\CCCCC2=O)cc1	54 µM	> 100 µM	54.8 µM		194 µM	3.6	3.5
COc1cccc(/C=C2\CCC/C(=C\c3ccc([N+](=O)[O-])cc3)C2=O)c1OC	3.9 µM	27.7 µM	33.3 µM		< 10 µM		
COc1cc(/C=C2\CCC/C(=C\c3cc(OC)c(OC)c(OC)c3)C2=O)cc(OC)c1OC	17 µM	69.5 µM	9.5 µM	2.2	155 µM	9.1	16.3
COc1ccc(/C=C2\CCC/C(=C\c3c(Cl)cccc3Cl)C2=O)cc1	5.2 µM	54.2 µM	20.5 µM	4.3	232 µM	44.6	11.3
COc1cccc(/C=C2\CCC/C(=C\c3cccc(Br)c3)C2=O)c1OC	19.8 µM	72 µM	33 µM	0.4	31.5 µM	1.6	1
COc1cccc(/C=C2\CCC/C(=C\C(C)Cc3ccc4c(c3)OCO4)C2=O)c1OC (stereo not drawn)	10 µM	82 µM	26.1 µM	2.2	178 µM	17.8	6.8
COc1cccc(/C=C2\CCCCC2=O)c1OC	> 100 µM	> 100 µM	> 100 µM		720 µM		
COc1ccc(/C=C2\CCC/C(=C\c3ccccc3)C2=O)cc1	11.8 µM	> 100 µM	20.6 µM		291 µM	24.6	14.1
COc1ccc(/C=C2\CCC/C(=C\c3ccc(F)cc3)C2=O)cc1	10.8 µM	> 100 µM	21 µM		378 µM	35	18
COc1cccc(/C=C2\CCC/C(=C\c3cc(OC)c(OC)c(OC)c3)C2=O)c1OC	2.6 µM	30.2 µM	3 µM	1	29.3 µM	11.3	9.8
COc1ccc(/C=C2\CCC/C(=C\c3cccc(OC)c3OC)C2=O)cc1	8.9 µM	27.4 µM	5.2 µM	14.6	401 µM	45.1	77.2
COc1cccc(/C=C2\CCC/C(=C\c3ccccc3)C2=O)c1OC	16.7 µM	60 µM	25.8 µM	0.6	33.5 µM	2	1.3
COc1ccc(/C=C2\CCC/C(=C\c3ccc(Br)cc3)C2=O)cc1	17.3 µM	> 100 µM	55 µM		250 µM	14.5	4.5
O=C1/C(=C/c2c(Cl)cccc2Cl)CCC/C1=C\c1c(Cl)cccc1Cl	4.9 µM	93.5 µM	83.9 µM	6.1	574 µM	117	6.8
COc1ccc(/C=C2\CCC/C(=C\c3ccc(Cl)cc3)C2=O)cc1	17.8 µM	> 100 µM	21.6 µM		401 µM	22.5	18.6
COc1ccc(/C=C2\CCC/C(=C\c3cccc(OC)c3OC)C2=O)cc1OC	4.5 µM	23.8 µM	28.5 µM	1.5	36.1 µM	8	1.3

Compound	IC50 [1]	EC50 [2]	IC50 [3]	selectivity ratio [4]	CC50 [5]	selectivity ratio [6]	selectivity ratio [7]
COc1cccc(/C=C2\CCC/C(=C\c3ccc(F)cc3)C2=O)c1OC	4.7 µM	70.2 µM	24.4 µM	0.5	33.2 µM	7.1	1.4
COc1ccc(/C=C2\CCC/C(=C\c3ccc(N(C)C)cc3)C2=O)cc1	91 µM	> 100 µM	> 100 µM		392 µM	4.3	
COc1cccc(/C=C2\CCC/C(=C\c3ccc(Br)cc3)C2=O)c1OC	20.1 µM	77 µM	35 µM	0.4	31.5 µM	1.6	0.9
COc1cc([N+](=O)[O-])ccc1/C=C1\CCC/C(=C\c2cccc(OC)c2OC)C1=O	4.8 µM	> 100 µM	26.5 µM		120 µM	25	4.5
COc1ccc(/C=C2\CCC/C(=C\c3ccccc3Cl)C2=O)cc1	13 µM	> 100 µM	26.6 µM		238 µM	18.3	8.9
COc1ccc(/C=C2\CCC/C(=C\c3cccc(Br)c3)C2=O)cc1	5.7 µM	> 100 µM	20.2 µM		30 µM	5.3	1.5
COc1ccc(/C=C2\CCC/C(=C\c3ccccc3F)C2=O)cc1	9 µM	> 100 µM	13.6 µM		270 µM	29.9	19.8
COc1cccc(/C=C2\CCC/C(=C\c3c(Cl)cccc3Cl)C2=O)c1OC	3.7 µM	35 µM	26.2 µM	4.6	160 µM	43.3	6.1
O=C1/C(=C/c2ccc(Cl)cc2)CCC/C1=C\c1ccc(Cl)cc1	3.6 µM	85.3 µM	16.2 µM	0.4	32.1 µM	8.9	2
O=C1/C(=C/c2ccc(Br)cc2)CCC/C1=C\c1ccc(Br)cc1	4.2 µM	49 µM	29.3 µM	1.2	58 µM	13.8	2
O=C1/C(=C/c2cccc(Br)c2)CCC/C1=C\c1cccc(Br)c1	2.3 µM	63.2 µM	33.3 µM	0.6	35.9 µM	15.6	1.1
COc1cccc(/C=C2\CCC/C(=C\c3cccc(OC)c3OC)C2=O)c1OC	4.1 µM	27 µM	23.6 µM	0.9	24.9 µM	6.1	1.1
O=C1/C(=C/c2ccc(F)cc2)CCC/C1=C\c1ccc(F)cc1	4.3 µM	68.7 µM	24.7 µM	0.5	34.4 µM	8	1.4
O=C1/C(=C/c2ccccc2Cl)CCC/C1=C\c1ccccc1Cl	4.6 µM	36.2 µM	27.8 µM	0.8	30.6 µM	6.7	1.1
COc1ccc(/C=C2\CCC/C(=C\c3ccc(OC)cc3)C2=O)cc1	33.3 µM	> 100 µM	63.6 µM		178 µM	5.3	2.8
O=C1/C(=C/c2ccccc2)CCC/C1=C\c1ccccc1 [2,6-DIBENZYLIDENECYCLOHEXANONE]	2.8 µM	76.2 µM	18.4 µM	0.5	40.6 µM	14.5	2.2
O=C(Cn1ccnc1[N+](=O)[O-])NCc1ccccc1 [BENZNIDAZOLE]			6.5 µM				
COc1cc(/C=C/C(=O)CC(=O)/C=C/c2ccc(O)c(OC)c2)ccc1O [CURCUMIN]	> 100 µM	15 µM	67.3 µM	2.5	36.8 µM		0.5
